The text below walks through data of patent US20240300882A1, “CRYSTALLINE FORMS OF A DIFFUSION ENHANCING COMPOUND” (DIFFUSION PHARMACEUTICALS LLC, priority 2021, published 2024).

Holding throughout (assay type): physicochemical
Data set [1] can be described thus: Dynamic vapor sorption (DVS) analysis. To be noted: for Form by XRPD after DVS analysis: exposed up to 95% RH and down to 5% RH. The method, then: DVS analysis is carried out using a TA Instruments Q5000 Dynamic Vapor Sorption analyzer. The instrument is calibrated with standard weights and a sodium bromide standard for humidity. Approximately 10-25 mg (e.g., 20 mg) or 5-15 mg of sample is loaded into a metal-coated quartz pan for analysis. The sample is analyzed at 25° C. with a maximum equilibration time of one hour in 10% relative humidity (RH) steps from 5 to 95% RH (adsorption cycle) and from 95 to 5% RH (desorption cycle). The movement from one step to the next occurred either after satisfying the equilibrium criterion of 0.01% weight change or, if the equilibrium criterion is not met, after one hour. The percent weight change values are calculated using Microsoft Excel®. The temperature for the DVS analysis may impact the outcome of the results.

The nature of data set [2]: Solid-state stability in relative humidity jars, analysed by XRPD. To be noted: up to 4 weeks at 25° C./60% RH and 40° C./75% RH. The method, then:
The solid-state stability of TSC Crystalline Forms A and F are evaluated at 25° C./60% relative humidity (RH) and 40° C./75% RH.
To a 1-dram glass vial is added approximately 20 mg of TSC Crystalline Form A or F. The open vials are placed in relative humidity (RH) jars. The RH in each jar is controlled by a saturated salt solution (sodium bromide for 60% RH and sodium chloride for 75% RH). The RH jars are purged with nitrogen and sealed. The sealed RH jars are placed in ovens set at the appropriate temperatures. The materials are analyzed at given time points by XRPD.

A short description of data set [3]: Equilibrium solubility shake-flask method, 24-hour slurry, XRPD result. Conditions: water and ethanol. The protocol: Solubility is evaluated using shake-flask method at room temperature. Individual samples are prepared as follows: Approximately 20 mg of TSC Forms A, F, and J are placed in a 1-dram glass vial. To each vial is added 1.5 mL of media. The vials are then placed in an incubation chamber at room temperature with shaking at 150 rpm. After 24 hours the vials are removed and each slurry is vacuum filtered. The mother liquor is diluted 1:10 with the respective media for that sample and analyzed by HPLC. Water used is HPLC grade. Ethanol used in absolute, HPLC grade.

Data set [4] in a line: Physical stability of Crystalline Form F under slurry conditions, XRPD. Conditions: anhydrous ethanol and ethanol with 1 and 5% water, ambient temperature, up to 4 days. The method, then: The physical stability of Crystalline Form F is evaluated when it is slurried in three solvent systems (anhydrous ethanol and ethanol containing both 1 and 5% water by volume) at ambient temperature.
To a 1-dram glass vial is added approximately 20 mg of TSC Crystalline Form F and 1 mL of a given solvent. The slurry is stirred at room temperature for a given amount of time. The vial is then centrifuged, the mother liquor decanted, and the wet solid is analyzed by XRPD.

Data set [5] in a line: Competitive slurry experiments, wet solid analysed by XRPD. The protocol: Sample preparation is carried out in a nitrogen glove box. Saturated solutions of TSC from Example 2 are prepared at a given temperature. The volume of each solution is about 1.5 mL and it is deemed saturated if excess solid remains after stirring for 2 hours. The sample is then centrifuged and the mother liquor is transferred to a vial containing equal amounts of each polymorph, about 10 mg each. The vials are capped and sealed with parafilm, and the slurries are then stirred magnetically at a given temperature for 5 days. Each sample is then centrifuged, the mother liquor decanted, and the wet solid immediately analyzed by XRPD.
Competitive slurry experiments involving Crystalline Forms A through E are carried out at three different temperatures using three different solvent systems (Table 2). […] At 50° C., the slurries in 1:1 acetone:water and 1:1 acetonitrile:water produce a mixture of Crystalline Forms A and B and Crystalline Form A, respectively. Although both solvent systems contain significant amounts of water, the slurries are carried out at a temperature at which Crystalline Form B is known to lose volatiles. […] That is probably the reason that Crystalline Form A results from the higher-temperature slurries in water-containing solvents.
Additional competitive slurry experiments are carried out between Crystalline Forms A, B, and F (Table 3). The data are consistent with the results in Example 10. […] The elevated temperature aqueous slurry data is also consistent with Example 10. Crystalline Form A is observed in aqueous media at 50° C. In the case of the 1:1 ethanol:water slurry, the XRPD pattern of the resulting material matches that of Crystalline Form A but contains several unidentified peaks.

Data set [6] in a line: Heating to 100° C. in a TG furnace, then XRPD. To be noted: Heat to 100° C., hold 1 minute. The protocol: Crystalline Forms A and B are heated to 100° C. in a TG furnace, held at that temperature for 1 minute, and immediately analyzed by XRPD.
Data set [7] can be described thus: XRPD under a nitrogen stream of variable relative humidity. The protocol:
Form H from Example 25 is measured under different relative humidities. The humidity measurements are made on a powder diffractometer X'Pert, PANalytical (G.16.SYS.S006) using CuKα radiation. Measuring conditions: tube power 40 kV/40 mA, scan range 1°-50° (2θ), step size 0.02°, time per step 2.4 seconds. The sample is measured in a 0.4 mm deep sample holder in a closed chamber under a stream of nitrogen of variable relative humidity (RH). The humidity of the nitrogen stream is controlled by varying the relative amount of humid and dry nitrogen gas. The sample is first conditioned one hour with a dry nitrogen stream and then a first XPRD is taken. The humidity of the gas stream is then changed to 50% RH and the sample is conditioned three hours to the new RH prior to a second XRPD measurement. After 10 more hours with 50% RH, a third XRPD is taken.

Turning to “trans sodium crocetinate [Crystalline Form F]”, the “Form by XRPD after DVS analysis” value in data set [1] was “remains unchanged”. Also, in data set [2], the “Solid-state stability of the form” value was “remain unchanged”. Moreover, the “Form after 24-hour slurry experiments” value in data set [3] was “remain unchanged”. Besides, the “Physical stability of the form when slurried” value in data set [4] was “remains unchanged”.

Regarding “trans sodium crocetinate [Crystalline Form A]”, the “Relative stability of the forms” value in data set [5] (between 2 and 50° C. in methanol) is “more stable than Forms B through E”; in data set [5] (between 2 and 55° C. in absolute ethanol and absolute ethanol containing either 10% methanol or toluene) it was “more stable than Forms B through F”; in data set [5] (non-aqueous conditions), “most stable form”. For the same molecule, in data set [1] (DVS, 25° C., 5 to 95% RH), the maximum water absorption entry was “about 2.5%”. The “Form by XRPD after DVS analysis” value in data set [1] was “remains unchanged”. For the same molecule, the “Solid-state stability of the form” value in data set [2] is on record as “remain unchanged”. Moreover, the “Form after 24-hour slurry experiments” value in data set [3] is recorded as “remain unchanged”. In data set [6], the “XRPD pattern after heating” value is “remains unchanged”.

Turning to `CC(/C=C/C=C(\C)C(=O)[O-])=C\C=C\C=C(C)\C=C\C=C(/C)C(=O)[O-].[Na+].[Na+]` [Crystalline Form B, trans sodium crocetinate], the “Relative stability of the forms” value in data set [5] (aqueous conditions) was “most stable form”; in data set [5] (between 2 and 55° C. in 1:1 ethanol:water (v/v)), “more stable than Forms A, C, D, E, and F”. In addition, the “XRPD pattern after heating” value in data set [6] is “converts to Crystalline Form F”.

As to `CC(/C=C/C=C(\C)C(=O)[O-])=C\C=C\C=C(C)\C=C\C=C(/C)C(=O)[O-].[Na+].[Na+]` [Form H, trans sodium crocetinate], the “Form on exposure to different relative humidities” value in data set [7] is given as “changes form”. Besides, the “Form by XRPD after humidity exposure” value in data set [7] (0% RH, dry nitrogen stream, one hour) was “Form G”; in data set [7] (50% RH, 10 more hours (third XRPD)), “no difference between the second and third XRPDs”; in data set [7] (50% RH, three hours), “Form E”.

Take “trans sodium crocetinate [Crystalline Form J]”: the “Form after 24-hour slurry experiments” value in data set [3] was “exhibits form conversion”.

For the molecule `CC(/C=C/C=C(\C)C(=O)[O-])=C\C=C\C=C(C)\C=C\C=C(/C)C(=O)[O-].[Na+].[Na+]` [Example 20, trans sodium crocetinate], the “Form by XRPD after DVS analysis” value in data set [1] is given as “remains unchanged”.
